Experimental data as given in PubChem BioAssay (NCI).
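Where inhibition never reached the appropriate level, the endpoint shown equals the highest concentration tested. Otherwise, values were interpolated linearly from a five-concentration, 48-hour dose response in 96-well plates. GI50 is the concentration that inhibits growth by half. Definition used: TGI = concentration required for complete inhibition of growth.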

Assays:
Assay in all cases: NCI tumour cell line growth inhibition, 48 h
SN12C renal = tested on: SN12C renal
HCC-2998 colon = tested on: HCC-2998 colon
LOX IMVI melanoma = tested on: LOX IMVI melanoma
SF-268 CNS = tested on: SF-268 CNS
SK-MEL-5 melanoma = tested on: SK-MEL-5 melanoma
SF-295 CNS = tested on: SF-295 CNS
SF-539 CNS = tested on: SF-539 CNS
PC-3 prostate = tested on: PC-3 prostate
MDA-MB-231 breast = tested on: MDA-MB-231 breast
T-47D breast = tested on: T-47D breast

SMILES | TGI (SN12C renal) [µM] | TGI (HCC-2998 colon) [µM] | TGI (LOX IMVI melanoma) [µM] | TGI (SF-268 CNS) [µM] | TGI (SK-MEL-5 melanoma) [µM] | TGI (SF-295 CNS) [µM] | TGI (SF-539 CNS) [µM] | TGI (PC-3 prostate) [µM] | TGI (MDA-MB-231 breast) [µM] | TGI (T-47D breast) [µM] | GI50 (PC-3 prostate) [µM] | GI50 (SN12C renal) [µM] | GI50 (MDA-MB-231 breast) [µM] | GI50 (LOX IMVI melanoma) [µM] | GI50 (T-47D breast) [µM] | GI50 (SK-MEL-5 melanoma) [µM] | GI50 (SF-295 CNS) [µM] | GI50 (SF-539 CNS) [µM] | GI50 (HCC-2998 colon) [µM] | GI50 (SF-268 CNS) [µM]
C[n+]1c(N)n(C(=O)OCc2ccccc2)c(=O)c2c1ncn2C(=O)OCc1ccccc1 | > 100 | > 100 | > 100 | > 100 | > 100 | > 100 |  |  |  |  |  |  |  |  |  |  |  |  |  | 
C[N+](C)(C)CC1CCCC/C1=N\O (stereo unspecified) | > 100 | > 100 | > 100 | > 100 |  | > 100 | > 100 |  |  |  |  |  |  |  |  |  |  |  |  | 
CC1=C(C(=O)Nc2ccccc2)C(c2ccc(C(C)C)cc2)C(C(=O)Nc2ccccc2)=C(C)N1 | 27.8 | 20.9 | 30.4 | > 100 | 27 | > 100 | 17.6 |  |  |  |  |  |  |  |  |  |  |  |  | 
Nc1nc(N)c(-c2ccccc2)c(CCC(=O)Nc2ccc(Cl)cc2)n1 | > 100 | > 100 |  | > 100 | > 100 | > 100 | > 100 |  |  |  |  |  |  |  |  |  |  |  |  | 
Cc1ncc([N+](=O)[O-])n1CCNC(=O)CCCCCn1ccnc1[N+](=O)[O-] | > 100 | > 100 |  | > 100 | > 100 | > 100 | > 100 | > 100 | > 100 | > 100 |  |  |  |  |  |  |  |  |  | 
Cc1cc(O)cc2c1c(=O)c1ccccc1n2C | > 100 |  | > 100 | 84.4 | > 100 | > 100 | > 100 | > 100 | > 100 | > 100 |  |  |  |  |  |  |  |  |  | 
COc1cc2c(cc1OC)-c1ncc3cc4c(cc3c1C2)OCO4 | > 100 |  | > 100 |  | > 100 | > 100 | 56.1 | > 100 | > 100 | > 100 | > 100 | > 100 | > 100 | > 100 | 71.2 | 7.65 | 46.2 | 23.4 |  | 
O=C(/C(=C/c1ccccc1)c1ccccc1)N1c2ccccc2CC1c1c[nH]c2ccccc12 (stereo unspecified) | > 100 | > 100 | > 100 |  | > 100 | > 100 | > 100 |  |  |  |  |  |  |  |  |  |  |  |  | 
CC(C)(C)OC(=O)N1N=NC2C3OC(CC3=O)C21 (stereo unspecified) | > 100 | > 100 | > 100 | > 100 |  |  | > 100 |  |  |  |  |  |  |  |  |  |  |  |  | 
COc1ccc(/C=N/N=C(\[O-])c2ccncc2)cc1F.COc1ccc(/C=N\N=C(/[O-])c2ccncc2)cc1F.[Cu+2] | > 100 | > 100 | > 100 | 86.3 | 80.4 | 26.5 | 37.1 | 35.1 | > 100 |  | 16.8 | 40.4 | 32.4 | 68.8 |  | 26 | 11.2 | 17.8 | 32.9 | 25.9
N#Cc1cccc(OCc2ccccc2COc2cccc(C#N)c2)c1 | 73.1 | > 100 |  | 61.2 | > 100 | 20.3 | 35.5 | > 100 | 47.5 | > 100 | 25.5 | 19 | 7.83 |  | 55.6 | 43.4 | 5.64 | 18.8 | > 100 | 25
